Columns and labels:
c-KIT = target: T1, c-KIT (Homo sapiens, UniProt P10721); assay: Inhibition of c-KIT, radiometric filter-binding assay; format: biochemical; conditions: 700 μM ATP, pE4Y substrate
T1 construct: 0.02% BSA and 25 nM c-KIT
Method: Compounds are screened for their ability to inhibit c-KIT activity using a radiometric filter-binding assay. This assay monitors the ^33P incorporation into a substrate poly(Glu, Tyr) 4:1 (pE4Y). Reactions are carried out in a solution containing 100 mM HEPES (pH 7.5), 10 mM MgCl2, 25 mM NaCl, 1 mM DTT, 0.01% BSA and 2.5% DMSO. Final substrate concentrations in the assay were 700 μM ATP and 0.5 mg/mL pE4Y (both from Sigma Chemicals, St Louis, Mo.). The final concentration of compounds is generally between 0.01 and 5 μM. Typically, a 12-point titration is conducted by preparing serial dilutions from 10 mM DMSO stock of test compound. Reactions were carried out at room temperature.
Two assay solutions are prepared. Solution 1 contains 100 mM HEPES (pH 7.5), 10 mM MgCl2, 25 mM NaCl, 1 mg/ml pE4Y and 1.4 mM ATP (containing 0.5 μCi of [γ-^33P]ATP for each reaction). Solution 2 contains 100 mM HEPES (pH 7.5), 10 mM MgCl2, 25 mM NaCl, 2 mM DTT, 0.02% BSA and 25 nM c-KIT. The assay is run on a 96 well plate by mixing 33 μL of Solution1 and 1.65 μL of the test compounds. The reaction is initiated with 33 μL of Solution2. After incubation for 20 minutes at room temperature, the reaction was stopped with 50 μL of 10% TCA containing 0.2 mM of ATP. All of the reaction volume is then transferred to a filter plate and washed with 5% TCA by a Harvester9600 from TOMTEC (Hamden, Conn.). The amount of ^33P incorporation into pE4y is analyzed by a Packard TopCount Microplate Scintillation Counter (Meriden, Conn.). The data is fitted using Prism software to get an IC50 or Ki.

CDK-2/Cyclin A = target: T2, CDK-2/Cyclin A (Homo sapiens, UniProt P24941); assay: Inhibition of CDK-2, coupled enzyme assay; format: biochemical; conditions: 100 μM ATP, 30° C.
T2 construct: 25 nM CDK-2/Cyclin A
Method: Compounds are screened for their ability to inhibit CDK-2/Cyclin A using a standard coupled enzyme assay [Fox et al. Protein Sci. 1998, 7, 2249]. Reactions were carried out in 100 mM HEPES (pH 7.5), 10 mM MgCl2, 25 mM NaCl, 1 mM DTT and 1.5% DMSO. Final substrate concentrations in the assay are 100 μM ATP (Sigma chemicals) and 100 μM peptide (American Peptide, Sunnyvale, Calif.). Assays are carried out at 30° C. and 25 nM CDK-2/Cyclin A. Final concentrations of the components of the coupled enzyme system are 2.5 mM phosphoenolpyruvate, 350 μM NADH, 30 μg/ml pyruvate kinase and 10 μg/ml lactate dehydrogenase.
An assay stock buffer solution is prepared containing all of the reagents listed above, with the exception of CDK-2/Cyclin A, DTT and the test compound of interest. 56 μl of the test reaction is placed in a 384 well plate followed by addition of 1 μl of 2 mM DMSO stock containing the test compound (final compound concentration 30 μM). The plate is preincubated for ˜10 minutes at 30° C. and the reaction initiated by addition of 10 μl of enzyme (final concentration 25 nM). Rates of reaction are obtained using a BioRad Ultramark plate reader (Hercules, Calif.) over a 5 minute read time at 30° C. Ki values are determined according to standard methods.

T1 sequence (P10721 26-976): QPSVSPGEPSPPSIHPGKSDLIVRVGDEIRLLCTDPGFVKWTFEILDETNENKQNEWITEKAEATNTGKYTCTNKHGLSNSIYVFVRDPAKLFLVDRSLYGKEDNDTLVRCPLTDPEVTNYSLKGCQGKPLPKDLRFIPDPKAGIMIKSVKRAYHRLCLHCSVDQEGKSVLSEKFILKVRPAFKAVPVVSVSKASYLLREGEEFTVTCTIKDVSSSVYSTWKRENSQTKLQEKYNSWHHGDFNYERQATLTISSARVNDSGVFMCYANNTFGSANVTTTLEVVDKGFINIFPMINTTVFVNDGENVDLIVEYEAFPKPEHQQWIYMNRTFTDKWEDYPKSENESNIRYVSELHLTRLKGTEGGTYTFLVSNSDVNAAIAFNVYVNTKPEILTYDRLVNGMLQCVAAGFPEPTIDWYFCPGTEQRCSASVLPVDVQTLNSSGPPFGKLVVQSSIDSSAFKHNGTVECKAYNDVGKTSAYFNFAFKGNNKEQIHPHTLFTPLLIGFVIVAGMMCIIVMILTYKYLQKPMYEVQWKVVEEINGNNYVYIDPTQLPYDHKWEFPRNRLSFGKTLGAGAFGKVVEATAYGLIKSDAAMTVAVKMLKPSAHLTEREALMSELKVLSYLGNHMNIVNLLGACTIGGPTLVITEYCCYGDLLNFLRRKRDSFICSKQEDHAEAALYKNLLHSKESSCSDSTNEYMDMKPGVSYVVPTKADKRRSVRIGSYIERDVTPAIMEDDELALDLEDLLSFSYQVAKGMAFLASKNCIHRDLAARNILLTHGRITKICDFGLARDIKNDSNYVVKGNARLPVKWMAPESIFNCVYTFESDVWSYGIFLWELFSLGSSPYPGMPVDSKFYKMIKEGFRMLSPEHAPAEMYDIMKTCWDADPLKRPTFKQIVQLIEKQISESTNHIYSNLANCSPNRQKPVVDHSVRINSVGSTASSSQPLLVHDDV

| SMILES | Ki (c-KIT) [nM] | Ki (CDK-2/Cyclin A) [nM] |
| --- | --- | --- |
| c1ccc(-n2cnc(Nc3ccc4c(c3)OCCO4)n2)cc1 [Compound I-44] | < 50 | > 1000 |
| CCOc1ccc(Nc2ncn(-c3ccccc3)n2)cc1 [Compound I-47] | < 50 | > 1000 |
| CN(C)CCCN(C)c1cc(-n2cnc(Nc3ccccc3)n2)ccn1 [Compound I-53] |  | > 1000 |
| CCN(CCO)c1cc(-n2cnc(Nc3ccccc3)n2)ccn1 [Compound I-54] |  | < 500 |
| CN(Cc1ccccc1)c1cc(-n2cnc(Nc3ccccc3)n2)ccn1 [Compound I-55] | < 50 | < 500 |
| CN(Cc1cccnc1)c1cc(-n2cnc(Nc3ccccc3)n2)ccn1 [Compound I-57] |  | < 500 |
| CCCN(CCO)c1cc(-n2cnc(Nc3ccccc3)n2)ccn1 [Compound I-58] | < 50 | < 500 |
| COCCN(C)c1cc(-n2cnc(Nc3ccccc3)n2)ccn1 [Compound I-59, (2-methoxy-ethyl)-methyl-[4-(3-phenylamino-[1,2,4]triazol-1-yl)-pyridin-2-yl]-amine] |  | < 500 |
| CN1C(C)(C)CC(Nc2cc(-n3cnc(Nc4ccccc4)n3)ccn2)CC1(C)C [Compound I-61] |  | 500 to 1000 |
| CC(C)CCN(C)c1cc(-n2cnc(Nc3ccccc3)n2)ccn1 [Compound I-62, methyl-(3-methyl-butyl)-[4-(3-phenylamino-[1,2,4]triazol-1-yl)-pyridin-2-yl]-amine] |  | < 500 |
| O=c1[nH]c2ccccc2n1C1CCN(c2cc(-n3cnc(Nc4ccccc4)n3)ccn2)CC1 [Compound I-63] |  | > 1000 |
| CCOC(=O)c1ccc(Nc2ncn(-c3ccnc(N4CCCN(C(C)=O)CC4)c3)n2)cc1 [Compound I-76] |  | > 1000 |
| CC(=O)N1[C@H](C)CN(c2cc(-n3cnc(Nc4ccc(NC(=O)c5cccs5)cc4)n3)ccn2)C[C@@H]1C [Compound I-80] | < 50 | < 500 |
| CC(=O)N1[C@H](C)CN(c2cc(-n3cnc(Nc4ccc(NC(=O)c5ccco5)cc4)n3)ccn2)C[C@@H]1C [Compound I-81, Furan-2-carboxylic acid (4-{1-[2-(4-acetyl-3,5-dimethyl-piperazin-1-yl)-pyridin-4-yl]-1H-[1,2,4]triazol-3-ylamino}-phenyl)-amide] | 50 to 500 | 500 to 1000 |
| CC(=O)N1[C@H](C)CN(c2cc(-n3cnc(Nc4ccc(NC(=O)OCC(C)C)cc4)n3)ccn2)C[C@@H]1C [Compound I-90] | 50 to 500 | 500 to 1000 |
| CC(=O)N1[C@H](C)CN(c2cc(-n3cnc(Nc4ccc(NC(=O)OCC(C)(C)C)cc4)n3)ccn2)C[C@@H]1C [Compound I-91] | 50 to 500 | 500 to 1000 |
| CC(=O)N1[C@H](C)CN(c2cc(-n3cnc(Nc4ccc(N5CCN(S(=O)(=O)c6ccc(C)cc6)CC5)cc4)n3)ccn2)C[C@@H]1C [Compound I-92] | 50 to 500 | 500 to 1000 |
| CC(=O)N1[C@H](C)CN(c2cc(-n3cnc(Nc4ccc(N5CCN(C(=O)OC(C)(C)C)CC5)cc4)n3)ccn2)C[C@@H]1C [Compound I-97, 4-(4-{1-[2-(4-Acetyl-3,5-dimethyl-piperazin-1-yl)-pyridin-4-yl]-1H-[1,2,4]triazol-3-ylamino}-phenyl)-piperazine-1-carboxylic acid tert-butyl ester] | 50 to 500 | < 500 |
| CCNC(=O)Nc1ccc(Nc2ncn(-c3ccnc(N4C[C@@H](C)N(C(C)=O)[C@@H](C)C4)c3)n2)cc1 [Compound I-98, 1-(4-{1-[2-(4-Acetyl-3,5-dimethyl-piperazin-1-yl)-pyridin-4-yl]-1H-[1,2,4]triazol-3-ylamino}-phenyl)-3-ethyl-urea] | 50 to 500 | < 500 |
| CCCNC(=O)Nc1ccc(Nc2ncn(-c3ccnc(N4C[C@@H](C)N(C(C)=O)[C@@H](C)C4)c3)n2)cc1 [Compound I-99] | 50 to 500 | < 500 |
| CC(=O)N1[C@H](C)CN(c2cc(-n3cnc(Nc4ccc(NC(=O)NC(C)C)cc4)n3)ccn2)C[C@@H]1C [Compound I-100] | 50 to 500 | < 500 |
| CC(=O)N1[C@H](C)CN(c2cc(-n3cnc(Nc4ccc(NC(=O)NC(C)(C)C)cc4)n3)ccn2)C[C@@H]1C [Compound I-101] | 50 to 500 | 500 to 1000 |
| c1ccc(-n2cnc(Nc3ccc(N4CCOCC4)cc3)n2)cc1 [Compound I-106] |  | > 1000 |
| c1ccc(-n2cnc(Nc3ccnc(NCCN4CCOCC4)c3)n2)cc1 [Compound I-107] |  | > 1000 |
| c1ccc(-n2cnc(Nc3ccc(N4CCOCC4)nc3)n2)cc1 [Compound I-134] |  | > 1000 |
| CN1CCN(c2ccc(Nc3ncn(-c4ccccc4)n3)cn2)CC1 [Compound I-135] |  | > 1000 |

Further lines, results first:

| Ki (c-KIT) [nM] | Ki (CDK-2/Cyclin A) [nM] | SMILES |
| --- | --- | --- |
|  | < 500 | c1ccc(Nc2ncn(-c3ccnc(N4CCCCC4)c3)n2)cc1 [Compound I-49, phenyl-[1-(3,4,5,6-tetrahydro-2H-[1,2′]bipyridinyl-4′-yl)-1H-[1,2,4]triazol-3-yl]-amine] |
|  | < 500 | c1ccc(Nc2ncn(-c3ccnc(NC4CCCCC4)c3)n2)cc1 [Compound I-50] |
|  | < 500 | CN(CCO)c1cc(-n2cnc(Nc3ccccc3)n2)ccn1 [Compound I-51] |
|  | < 500 | c1ccc(Nc2ncn(-c3ccnc(N4CCCCCCC4)c3)n2)cc1 [Compound I-52] |
| < 50 | < 500 | CC1CCCN1c1cc(-n2cnc(Nc3ccccc3)n2)ccn1 (centres unmarked) [Compound I-56] |
|  | > 1000 | CCN(CC)CCNc1cc(-n2cnc(Nc3ccccc3)n2)ccn1 [Compound I-60] |
|  | > 1000 | O=C(C1CCCO1)N1CCN(c2cc(-n3cnc(Nc4ccccc4)n3)ccn2)CC1 (centres unmarked) [Compound I-64] |
|  | > 1000 | CCCC(=O)N1CCCN(c2cc(-n3cnc(Nc4ccccc4)n3)ccn2)CC1 [Compound I-68] |
|  | > 1000 | CC(C)C(=O)N1CCCN(c2cc(-n3cnc(Nc4ccccc4)n3)ccn2)CC1 [Compound I-69] |
|  | > 1000 | CC(C)CC(=O)N1CCCN(c2cc(-n3cnc(Nc4ccccc4)n3)ccn2)CC1 [Compound I-70] |
|  | 500 to 1000 | O=C(Nc1cc(-n2cnc(Nc3ccccc3)n2)ccn1)C1CCCCC1 [Compound I-93] |
|  | > 1000 | O=C(CC1CCCC1)Nc1cc(-n2cnc(Nc3ccccc3)n2)ccn1 [Compound I-94, 2-Cyclopentyl-N-[4-(3-phenylamino-[1,2,4]triazol-1-yl)-pyridin-2-yl]-acetamide] |
|  | 500 to 1000 | O=C(CCc1ccccc1)Nc1cc(-n2cnc(Nc3ccccc3)n2)ccn1 [Compound I-95] |
|  | < 500 | O=C(Cc1ccccc1)Nc1cc(-n2cnc(Nc3ccccc3)n2)ccn1 [Compound I-96] |
|  | > 1000 | CC(C)(C)CC(=O)Nc1cc(-n2cnc(Nc3ccccc3)n2)ccn1 [Compound I-102] |

— patent US7598245B2 (Vertex Pharmaceuticals Incorporated, priority 2003, dated 2009)
